Results published in paper PMC8957246, “Synthesis and diverse biological activity profile of triethylammonium isatin-3-hydrazones” (ADMET & DMPK, 2022).
Where two headings read alike, the source gives them in different places.

Tests used:
Format in all cases: cell-based
Micrococcus luteus B-109 = assay: Bactericidal activity, agar diffusion, M. luteus; conditions: Micrococcus luteus, B109, 2 mM/L
Excerpt: (§1) Plant pathogenic bacterial strains Micrococcus luteus B-109, Pectobacterium atrosepticum 1043, Pectobacterium carotovorum subsp. carotovorum MI, Pseudomonas fluorescens EL-2.1, and Xanthomonas campestris B-610 and fungal strain Fusarium oxysporum IBPPM 543 were obtained from the specialized scientific culture collection of IBPPM RAS (WFCC no. 975, WDCM no. 1021) (CM IBPPM). Pathogenic fungus Phytophthora cactorum VKM F-985 provided by the All-Russian Collection of Microorganisms (VKM) and deposited at A.E. Favorsky Irkutsk Institute of Chemistry, SB RAS, was also used as test organism. Bacteria M. luteus, P. carotovorum subsp. carotovorum, P. atrosepticum, and Ps. fluorescens were grown in meat-peptone medium (BP), and X. campestris was grown in the medium with glucose, yeast extract, and calcium carbonate (GYCa). Solid media contained Bacto agar (18 g/L); pH was adjusted to 7.2-7.4. All bacterial cultures were grown at 28°C. The mycelial cultures of F. oxysporum and P. cactorum were grown on a glucose-peptone-yeast (GPY) nutrient medium at 27 °C. For inoculum preparation, both fungal strains were initially grown on the agar GPY in Petri dishes and then transferred into the seed medium by punching out 5 mm of the agar plate culture with a self-designed cutter.
(§2) Antibacterial and antifungal activities of the compounds were explored using the agar diffusion method and the technique of a phytopathogen radial growth inhibition. Method of diffusion in agar (measuring the diameter of growth inhibition zones) was used for determining the bactericidal activity. The 6-mm wells were made in ager medium (GYCa for Xanthomonas campestris or BP for other bacteria). Bacterial suspensions were distributed over the agar surface, and the tested compound's solution (150 μl) was added to each well. The width of growth inhibition zones around the wells was determined after incubation for 36-40 h.
(§3) The solutions of tested compounds were prepared with a concentration of 2 mmol/l (stock solution). For comparison, test compounds were also commonly applied disinfecting agents and antibiotics.

[1] = tested on: Xanthomonas campestris B-610; assay: Bactericidal activity, agar diffusion, X. campestris; conditions: Xanthomonas campestris, B610, 2 mM/L
Excerpt: as §1, §2, §3

[2] = tested on: Fusarium oxysporum IBPPM 543; assay: Fungicidal activity, radial growth inhibition, F. oxysporum; conditions: for EC50: Fusarium oxysporum, IBPPM543, 168 h, day 7, EC50 = 50C/I, read-out: EC50, μg/mL at day 7
Excerpt: as §1
(§4) For the fungicidal activity analysis, radial growth (colony diameters) of the fungi on a solid medium in the absence and in the presence of the compounds 3a,c-g solutions at various concentrations were compared. The method consisted of the following: sterile, melted and then cooled to about 60°C GPY agar medium (20.0 ml) was mixed with the precisely measured volumes of the solutions under question, and poured into a sterile Petri dish (90 mm i.d.). After solidification of GPY agar, the media were inoculated by the fungus using 10-day-old cultures of F. oxysporum or P. cactorum. The inoculation was done by transferring a 5-mm (i.d.) GPY-agar block covered with mycelium to the center of the Petri dish followed by incubation in a thermostat at 27°C. The fungicidal effect was scored by the size of mycelium colony on a Petri dish compared to the control without fungicidal admixtures to GPY agar. Each treatment was performed in at least four replicates in two independent experiments. The observation period ended when the control Petri dish was filled with mycelium (usually after 12 days). The inhibition of the phytopathogen colony growth by the compounds 3a,c-g or fludioxonil solutions was calculated as a percentage by which the mycelium radial propagation was decreased compared to the unaffected control, the latter was taken as 100 % of growth (or zero percent of inhibition). The EC50 value was calculated as the compound concentration at which the radial growth of the fungus colony was decreased by 50 % relative to the non-fungicidal control, according to the formula EC50 = 50C/I based on the approach developed e.g., in [34, 35].
as §3

[3] = tested on: Phytophthora cactorum VKM F-985; assay: Fungicidal activity, radial growth inhibition, P. cactorum; conditions: for EC50: Phytophthora cactorum, 168 h, day 7, EC50 = 50C/I, read-out: EC50, μg/mL at day 7
Excerpt: as §1, §4, §3

[4] = 150 μl per well, 36-40 h, read-out: width of the inhibition zone
[5] = read-out: Inhibition zone width (mm), not less
[6] = C 6.30 μg/mL, age of the fungus 3 days
[7] = C 6.30 μg/mL, age of the fungus 5 days
[8] = C 6.30 μg/mL, age of the fungus 7 days
[9] = C 6.30 μg/mL, age of the fungus 9 days
[10] = C 12.60 μg/mL, age of the fungus 3 days
[11] = C 12.60 μg/mL, age of the fungus 5 days
[12] = C 12.60 μg/mL, age of the fungus 7 days
[13] = C 12.60 μg/mL, age of the fungus 9 days
[14] = C 6.81 μg/mL, age of the fungus 3 days
[15] = C 6.81 μg/mL, age of the fungus 5 days
[16] = C 6.81 μg/mL, age of the fungus 7 days
[17] = C 6.81 μg/mL, age of the fungus 9 days
[18] = C 13.62 μg/mL, age of the fungus 3 days
[19] = C 13.62 μg/mL, age of the fungus 5 days
[20] = C 13.62 μg/mL, age of the fungus 7 days
[21] = C 13.62 μg/mL, age of the fungus 9 days

CC[N+](CC)(CC)CC(=O)N/N=C1\C(=O)N(Cc2cc(C(C)(C)C)c(O)c(C(C)(C)C)c2)c2c1ccc(C)c2C [Compound 3d, 2-(2-(1-(3,5-Di-tert-butyl-4-hydroxybenzyl)-6,7-dimethyl-2-oxoindolin-3-ylidene)hydrazinyl)-N,N,N-triethyl-2-oxoethanammonium bromide]
zone of inhibition at 2000 µM (Micrococcus luteus B-109; [4]): 8 mm | zone of inhibition at 2000 µM (Micrococcus luteus B-109; [5]): ≥ 8 mm | zone of inhibition at 2000 µM [1, 4]: 8 mm | zone of inhibition at 2000 µM [1, 5]: ≥ 8 mm | Inhibition value, I (%) [2, 6]: 0% | Inhibition value, I (%) [2, 7]: 5% | Inhibition value, I (%) [2, 8]: 5% | Inhibition value, I (%) [2, 9]: 0% | Inhibition value, I (%) [2, 10]: 8% | Inhibition value, I (%) [2, 11]: 12% | Inhibition value, I (%) [2, 12]: 13% | Inhibition value, I (%) [2, 13]: 2% | Inhibition value, I (%) ([2]; C 25.20 μg/mL, age of the fungus 3 days): 17% | Inhibition value, I (%) ([2]; C 25.20 μg/mL, age of the fungus 5 days): 15% | Inhibition value, I (%) ([2]; C 25.20 μg/mL, age of the fungus 7 days): 20% | Inhibition value, I (%) ([2]; C 25.20 μg/mL, age of the fungus 9 days): 8% | Inhibition value, I (%) ([2]; C 37.80 μg/mL, age of the fungus 3 days): 22% | Inhibition value, I (%) ([2]; C 37.80 μg/mL, age of the fungus 5 days): 18% | Inhibition value, I (%) ([2]; C 37.80 μg/mL, age of the fungus 7 days): 24% | Inhibition value, I (%) ([2]; C 37.80 μg/mL, age of the fungus 9 days): 9% | EC50 [2]: 48.5 µg/mL | Inhibition value, I (%) ([3]; C 1.26 μg/mL, age of the fungus 3 days): 18% | Inhibition value, I (%) ([3]; C 1.26 μg/mL, age of the fungus 5 days): 17% | Inhibition value, I (%) ([3]; C 1.26 μg/mL, age of the fungus 7 days): 5% | Inhibition value, I (%) ([3]; C 1.26 μg/mL, age of the fungus 9 days): 0% | Inhibition value, I (%) ([3]; C 1.26 μg/mL, age of the fungus 12 days): 0% | Inhibition value, I (%) ([3]; C 3.15 μg/mL, age of the fungus 3 days): 23% | Inhibition value, I (%) ([3]; C 3.15 μg/mL, age of the fungus 5 days): 18% | Inhibition value, I (%) ([3]; C 3.15 μg/mL, age of the fungus 7 days): 14% | Inhibition value, I (%) ([3]; C 3.15 μg/mL, age of the fungus 9 days): 6% | Inhibition value, I (%) ([3]; C 3.15 μg/mL, age of the fungus 12 days): 5% | Inhibition value, I (%) [3, 6]: 29% | Inhibition value, I (%) [3, 7]: 19% | Inhibition value, I (%) [3, 8]: 15% | Inhibition value, I (%) [3, 9]: 8% | Inhibition value, I (%) ([3]; C 6.30 μg/mL, age of the fungus 12 days): 7% | Inhibition value, I (%) ([3]; C 9.45 μg/mL, age of the fungus 3 days): 31% | Inhibition value, I (%) ([3]; C 9.45 μg/mL, age of the fungus 5 days): 20% | Inhibition value, I (%) ([3]; C 9.45 μg/mL, age of the fungus 7 days): 17% | Inhibition value, I (%) ([3]; C 9.45 μg/mL, age of the fungus 9 days): 9% | Inhibition value, I (%) ([3]; C 9.45 μg/mL, age of the fungus 12 days): 8% | Inhibition value, I (%) [3, 10]: 50% | Inhibition value, I (%) [3, 11]: 50% | Inhibition value, I (%) [3, 12]: 51% | Inhibition value, I (%) [3, 13]: 48% | Inhibition value, I (%) ([3]; C 12.60 μg/mL, age of the fungus 12 days): 35% | EC50 [3]: 11.2 µg/mL

CC[N+](CC)(CC)CC(=O)N/N=C1\C(=O)N(Cc2cc(C(C)(C)C)c(O)c(C(C)(C)C)c2)c2cccc(Br)c21 [Compound 3e, 2-(2-(1-(3,5-Di-tert-butyl-4-hydroxybenzyl)-4-bromo-2-oxoindolin-3-ylidene)hydrazinyl)-N,N,N-triethyl-2-oxoethanammonium bromide]
zone of inhibition at 2000 µM (Micrococcus luteus B-109; [4]): 13 mm | zone of inhibition at 2000 µM (Micrococcus luteus B-109; [5]): ≥ 13 mm | zone of inhibition at 2000 µM [1, 4]: 11 mm | zone of inhibition at 2000 µM [1, 5]: ≥ 11 mm | Inhibition value, I (%) [2, 14]: 11% | Inhibition value, I (%) [2, 15]: 13% | Inhibition value, I (%) [2, 16]: 19% | Inhibition value, I (%) [2, 17]: 6% | Inhibition value, I (%) [2, 18]: 14% | Inhibition value, I (%) [2, 19]: 18% | Inhibition value, I (%) [2, 20]: 22% | Inhibition value, I (%) [2, 21]: 9% | Inhibition value, I (%) ([2]; C 27.24 μg/mL, age of the fungus 3 days): 19% | Inhibition value, I (%) ([2]; C 27.24 μg/mL, age of the fungus 5 days): 19% | Inhibition value, I (%) ([2]; C 27.24 μg/mL, age of the fungus 7 days): 25% | Inhibition value, I (%) ([2]; C 27.24 μg/mL, age of the fungus 9 days): 20% | Inhibition value, I (%) ([2]; C 40.86 μg/mL, age of the fungus 3 days): 40% | Inhibition value, I (%) ([2]; C 40.86 μg/mL, age of the fungus 5 days): 37% | Inhibition value, I (%) ([2]; C 40.86 μg/mL, age of the fungus 7 days): 43% | Inhibition value, I (%) ([2]; C 40.86 μg/mL, age of the fungus 9 days): 29% | EC50 [2]: 17.9 µg/mL | Inhibition value, I (%) ([3]; C 1.36 μg/mL, age of the fungus 3 days): 8% | Inhibition value, I (%) ([3]; C 1.36 μg/mL, age of the fungus 5 days): 14% | Inhibition value, I (%) ([3]; C 1.36 μg/mL, age of the fungus 7 days): 22% | Inhibition value, I (%) ([3]; C 1.36 μg/mL, age of the fungus 9 days): 10% | Inhibition value, I (%) ([3]; C 1.36 μg/mL, age of the fungus 12 days): 3% | Inhibition value, I (%) ([3]; C 3.41 μg/mL, age of the fungus 3 days): 13% | Inhibition value, I (%) ([3]; C 3.41 μg/mL, age of the fungus 5 days): 21% | Inhibition value, I (%) ([3]; C 3.41 μg/mL, age of the fungus 7 days): 34% | Inhibition value, I (%) ([3]; C 3.41 μg/mL, age of the fungus 9 days): 12% | Inhibition value, I (%) ([3]; C 3.41 μg/mL, age of the fungus 12 days): 5% | Inhibition value, I (%) [3, 14]: 17% | Inhibition value, I (%) [3, 15]: 33% | Inhibition value, I (%) [3, 16]: 38% | Inhibition value, I (%) [3, 17]: 16% | Inhibition value, I (%) ([3]; C 6.81 μg/mL, age of the fungus 12 days): 7% | Inhibition value, I (%) ([3]; C 10.22 μg/mL, age of the fungus 3 days): 39% | Inhibition value, I (%) ([3]; C 10.22 μg/mL, age of the fungus 5 days): 40% | Inhibition value, I (%) ([3]; C 10.22 μg/mL, age of the fungus 7 days): 53% | Inhibition value, I (%) ([3]; C 10.22 μg/mL, age of the fungus 9 days): 28% | Inhibition value, I (%) ([3]; C 10.22 μg/mL, age of the fungus 12 days): 18% | Inhibition value, I (%) [3, 18]: 45% | Inhibition value, I (%) [3, 19]: 62% | Inhibition value, I (%) [3, 20]: 72% | Inhibition value, I (%) [3, 21]: 70% | Inhibition value, I (%) ([3]; C 13.62 μg/mL, age of the fungus 12 days): 66% | EC50 [3]: 3.1 µg/mL
